# US20150337351A1, “METHODS OF MICROORGANISM IMMOBILIZATION” (priority 2014, published 2015)
# Columns and labels:
# [1] = tested on: Escherichia coli ATCC 25922 (Ecol); test: Biosensor mixed species diffusion assay (immobilized cells, microscopic detection), growth of sentinel strain; assay type: cell-based; settings: for Mixed species resistance factor diffusion? / Ecol growth in distal site? / Ecol growth in proximal site?: CAZ 16 (16 μg/mL); for Ecol growth in distal site?: distal from Paer; for Ecol growth in proximal site?: proximal to Paer
# Method: (§1) A mixed species diffusion variation of Hodge test using a biosensor with immobilized cells and microscopic detection was performed using the same bacterial strains. Heavy suspensions of Ecol and Paer were prepared in L-histidine buffer from fresh overnight blood agar plates. Heavy suspensions were diluted in normal saline to produce 0.5 McFarland suspensions, noting the volumes of each suspension required and using the same volumes to produce 10^8 cfu/mL suspensions of each strain in L-histidine. These suspensions were further diluted to create […] and 2×10^5 cfu/mL suspensions for heavy and moderate density working samples. The working samples were then diluted 1:1 in 2 mM L-DOPA for EKC.
# (§2) The strains were next introduced to a biosensor for EKC, immobilization, and detection. Paer suspensions were loaded first, placing 5 uL in the exit port side (to maintain the resistant Paer isolate in one half of each channel) of each biosensor flowcell channel to cover one half of the flowcell. Six flowcells were loaded with each concentration. EKC was performed for 5 minutes at 1.5V, and then all flowcells were washed with two aliquots of 160 μL 1 mM L-DOPA (from the entry port). Ecol suspensions were next loaded, introducing 20 μL of cells suspension from the entry port to cover the full flowcell. Six flowcells were loaded with each concentration. EKC was performed for 5 minutes at 1.5V, and all flowcells washed with 160 μL of 1/10 MHB. The manner in which the cells were introduced and captures created a site comprising Ecol cells that were distal from any Paer cells (i.e., on the entry port side of the flowcell), as well as Ecol cells that were proximal to the Paer cells (i.e., on the exit port side of the flowcell).
# (§3) Antibiotic media were prepared for immobilization and inhibition testing as follows. […] An immobilization medium source plate was prepared in the detection system and maintained at 45° C. The source plate wells were loaded with 20 μL of the 10× stocks and MHB without antibiotic for growth controls. The sample cassette was placed in the detection system and maintained at 40° C. A 180 uL volume of 0.944% MHA was added to each well of the source plate and mixed, and 100 uL of pre-immobilization immobilizing medium (with an agar concentration of 0.850%) was withdrawn and introduced to a flowcell in accordance with the experimental design. The loaded biosensor was allowed to equilibrate for 5 minutes, and was then removed and cooled for 5 minutes to induce the agar immobilizing agent to change to solid phase. The flowcell ports were then sealed, and growth, imaging, and analysis were performed, with examination of each flowcell for growth of Paer, examination of the distal portion of each flowcell for growth of Ecol in the absence of Paer (distal sensitivity), and examination of the proximal portion of each flowcell for growth of Ecol in the presence of Paer (proximal resistance), indicative of a positive mixed species resistance due to diffusion of metallo-beta-lactamase.
# (§4) In order to test for enzyme-mediated cross-species resistance effects, a method for was devised to test a sensitive strain, Escherichia coli ATCC 25922 (Ecol), in the presence of a resistant strain, Pseudomonas aeruginosa IHMA 519749 (Paer) in the immobilized format. The method involved first immobilizing the resistant strain on the surface of a portion of each test flowcell of the cassette (approximately half) and then immobilizing the sensitive (sentinel) strain on the surface of the full flowcell including the area containing the resistant strain. This strategy provides an internal control for treatment effects on the sentinel strain in an area far from the resistant strain along with an area where close-field effects can be observed in the same flowcell. […]
# [2] = tested on: P. aeruginosa 519749 (Paer); test: Plate-based disk diffusion tests, resistant strain; assay type: cell-based, Pseudomonas aeruginosa; settings: blood agar lawn plates, antibiotic disk, overnight at 35° C.
# Method: (§5) Several nutrient agar plating methods employing antibiotics, other chemicals, and one or more species of bacteria have been devised to study these mechanisms. The most basic of these tests, the disk-diffusion method, employs a single test strain of bacteria which is used to create a uniform layer or lawn when grown. A disk-containing antibiotic is placed on the inoculated plate and the plate is then incubated to grow the lawn. In cases where the strain is sensitive to the antibiotic, a zone of no growth is observed around the disk. The distance from the disk to the edge of this zone is an indicator of the level of resistance to the antibiotic present in the disk, based on how far the antibiotic can diffuse into the nutrient medium. A variation on this test is to employ a second disk or drop of fluid near the antibiotic disk that contains a chemical that can affect the antibiotic response. Differences between the zone in areas near the chemical and away from the chemical can indicate the type of resistance mechanism at work in the test. In this case, the chelating agent ethylenediamine tetraacetic acid (EDTA) (Sigma-Aldrich) can be used to test for the presence of a class of antibiotic resistance enzyme called metallo-beta-lactamase, which is inhibited by EDTA. The positive result for this test is a larger zone of inhibition near the EDTA indicating reduced effectiveness of the enzyme. […]
# [3] = tested on: E. coli 25922 (Ecol); test: Plate-based disk diffusion tests, sensitive strain; assay type: cell-based, Escherichia coli; settings: blood agar lawn plates, antibiotic disk, overnight at 35° C.
# Method: as §5
# [4] = tested on: Pseudomonas aeruginosa IHMA 519749 (Paer); test: Biosensor mixed species diffusion assay (immobilized cells, microscopic detection), growth of resistant strain; assay type: cell-based; settings: for Paer growth?: CAZ 16 (16 μg/mL), MHA 0.850% agar, 4 hours
# Method: as §1, §2, §3, §4
# [5] = Flowcell 5, Ecol 10^6/Paer 10^6
# [6] = Flowcell 5, Ecol 10^6/Paer 10^6, 4 hours
# [7] = Flowcell 6, Ecol 10^6/Paer 10^5
# [8] = Flowcell 6, Ecol 10^6/Paer 10^5, 4 hours
# [9] = Flowcell 7, Ecol 10^5/Paer 10^6
# [10] = Flowcell 7, Ecol 10^5/Paer 10^6, 4 hours
# [11] = Flowcell 8, Ecol 10^5/Paer 10^5
# [12] = Flowcell 8, Ecol 10^5/Paer 10^5, 4 hours
smiles,measurement,setting,value
"CC(C)(O/N=C(\C(=O)N[C@@H]1C(=O)N2C(C(=O)[O-])=C(C[n+]3ccccc3)CS[C@H]12)c1csc(N)n1)C(=O)O [CAZ, ceftazidime]",Ecol growth and morphology under antibiotic (time-lapse images),"[1]; CAZ at 16 μg/mL, immobilized in MHA, 4 hours",slight growth or elongation of the single cell with later fading and in many colonies complete lysis
same,Mixed species resistance factor diffusion?,[1]; [5],No
same,Ecol growth in distal site?,[1]; [6],No
same,Ecol growth in proximal site?,[1]; [6],No
same,Mixed species resistance factor diffusion?,[1]; [7],No
same,Ecol growth in distal site?,[1]; [8],No
same,Ecol growth in proximal site?,[1]; [8],No
same,Mixed species resistance factor diffusion?,[1]; [9],No
same,Ecol growth in distal site?,[1]; [10],No
same,Ecol growth in proximal site?,[1]; [10],No
same,Mixed species resistance factor diffusion?,[1]; [11],No
same,Ecol growth in distal site?,[1]; [12],No
same,Ecol growth in proximal site?,[1]; [12],No
same,Resistance of Paer isolate in plating-based tests,[2],high resistance
same,"Zone of inhibition, Paer isolate",[2],no zone of inhibition observed
same,Susceptibility of Ecol strain in plating-based tests,[3],sensitive
same,Paer growth morphology and rate under antibiotic vs growth control,"[4]; CAZ at 16 μg/mL, immobilized in MHA, proximal site",same morphology and growth rate as the growth control condition
same,Paer growth?,[4]; [5],Yes
same,Paer growth?,[4]; [7],Yes
same,Paer growth?,[4]; [9],Yes
same,Paer growth?,[4]; [11],Yes
